Measured values reported in patent US20160201132A1, “GENE EXPRESSION BIOMARKERS OF LAQUINIMOD RESPONSIVENESS” (Teva Pharmaceutical Industries Ltd., priority 2013, published 2016).

Tested on: PBMC of RRMS patients
Assay: Gene expression microarray analysis (HG-U133A-2) of PBMC from RRMS patients treated with LAQ, ancillary study to ALLEGRO
Type: in vivo, human
Settings: for Fold-Change (1.0 vs. 0.0): one month of treatment
From the text: The goal of this ancillary study was to characterize gene expression changes and corresponding biological mechanisms induced in PBMC of RRMS patients by LAQ treatment. According to ALLEGRO clinical trial inclusion criteria, 25 patients were randomly assigned to receive LAQ (n=13, age 38.8±2.3 years, female/male ratio: 8/5) or placebo (n=12, age 37.2±3.4 years, female/male ratio: 8/4).
Peripheral blood samples were obtained from RRMS patients at baseline before start of LAQ treatment or placebo, after 0, 1, 6 and 24 month of treatment (visit 0, 1, 6 and 7 according to ALLEGRO clinical trial protocol correspondently) for gene microarray analysis.
Briefly, 1) Peripheral blood mononuclear cells (PBMC) were obtained from RRMS patients that participated in ALLEGRO and were treated daily with 0.6 mg LAQ or placebo. PBMC were subjected for gene expression analysis (HU-133A-2-Affymatrix arrays) at baseline and at 1 and 6 months of LAQ treatment; 2) Data was analyzed by Partek Genomics Solution software. Most informative genes (MIGs) were defined as those that differentiated between groups with p<0.01. Gene functional annotation, enrichment and pathway analysis were performed by Ingenuity software. For each time point, genes that changed in placebo group were excluded from further analysis; and 3) Verification of LAQ related mechanism was performed by Western blot.
PBMC were extracted from 15 ml peripheral blood, separated by Ficoll-Hypaque gradient. Total RNA was extracted using both Trizol (Invitrogen, USA) and Phase-Lock-Gel columns (Eppendorf, Germany) including a DNase digestion step. RNA integrity was assessed by RNA Experion automated electrophoresis system (Bio-Rad Laboratories, Hercules, Calif.).
Probe synthesis using 3 μg total RNA, hybridization, detection, and scanning was performed according to the standard Affymetrix, Inc. USA protocols; cDNA was synthesized using the Two-Cycle cDNA Synthesis Kit (Affymetrix, Inc., USA), and in-vitro transcription performed with the GeneChip IVT Labeling Kit (Affymetrix, Inc., USA). The biotin-labeled IVT-RNA was hybridized to HG-U133A-2 arrays containing 18,400 gene transcripts, each corresponding to 14,500 well-annotated human genes, washed in a GeneChip Fluidics Station 450 (Hewlett Packard, USA, GeneArray-™ scanner G2500A) and scanned according to the manufacturer's protocol (Affymetrix, Inc., USA).
Data analysis was performed on Partek Genomics Solution software (www.partek.com; Partek Incorporated, St. Louis, Mo.). Expression values were computed from raw CEL files by applying the Robust Multi-Chip Average (RMA) background correction algorithm. RMA correction included: 1) values background correction; 2) quintile normalization; 3) log 2 transformation; and 4) median polish summarization. The ANOVA, Repeated Measures and correlation analysis implicated in Partek software ware applied to evaluate LAQ effects. Most informative genes MIGs were defined as those that differentiated between experimental groups with p<0.01. All p-values were calculated for False Discovery Rate (FDR) multiple test correction at p=0.05.
Additionally, significance of individual genes was tested by parametric T-test and non parametric Mann-Whitney test using Bootstrapping approach based on repeated permutations of the data with 5% FDR for multiple testing.
Gene functional annotation, enrichment, and pathway analyses to identify the leading biological pathways that operated under LAQ treatment were performed by Ingenuity Pathways Analysis software (www.ingenuity.com).
ANOVA analysis was used to compare PBMC gene expression after 1, 6 or 24 month of LAQ treatment with baseline gene expression.
For each time point inventors performed analysis source of variation in dataset. (FIG. 1). Age, gender and batch effects were considered as confounders regarding LAQ or Placebo related changes. For each time point genes associated with Placebo effect were evaluated and excluded from further analysis. […]

[1] = 1 month of LAQ 0.6 mg/day vs baseline
[2] = 6 months of LAQ 0.6 mg/day vs baseline
[3] = 1564 FDR genes, combined 6 and 24 months

For `CCN(C(=O)c1c(O)c2c(Cl)cccc2n(C)c1=O)c1ccccc1` [LAQ, 5-chloro-N-ethyl-4-hydroxy-1-methyl-2-oxo-N-phenyl-1,2-dihydroquinoline-3-carboxamide], the “# of genes p < 0.01 (LAQ related MIGs, ANOVA)” value [1] was 354, the “Down regulated genes (LAQ related MIGs)” value [1] was 348 and the “Up-regulated genes (LAQ related MIGs)” value [1] was 6. For the same compound, the “# of genes p < 0.01 (LAQ related MIGs, ANOVA)” value [2] was 1562, the “Down regulated genes (LAQ related MIGs)” value [2] was 1552 and the “Up-regulated genes (LAQ related MIGs)” value [2] was 10. For the same compound, the “p, suppression of genes related to the TGFB pathway” value (6 months or longer treatment) was 1.9*10^−2, the “genes (n), suppression of cell migration function” value [3] was 233 and the “genes (n), suppression of chemotaxis” value [3] was 78. For the same compound, the “p, suppression of cell migration function” value [3] was 4.5*10^−14, the “p, suppression of chemotaxis” value [3] was 4.3*10^−5 and the “Fold-Change (1.0 vs. 0.0)” value (202280_at (gene symbol not given)) was −1.157. For the same compound, the “Fold-Change (1.0 vs. 0.0)” value (ABLIM3 205730_s_at) was −1.542, the “Fold-Change (1.0 vs. 0.0)” value (ALDOB 204704_s_at) was −1.119 and the “Fold-Change (1.0 vs. 0.0)” value (APBA2 209871_s_at) was −1.163. The “Fold-Change (1.0 vs. 0.0)” value (ARHGEF10 215139_at) was −1.176, the “Fold-Change (1.0 vs. 0.0)” value (ARMCX6 /// LOC653354 214749_s_at) was −1.178 and the “Fold-Change (1.0 vs. 0.0)” value (ASAP2 206414_s_at) was −1.773. The “Fold-Change (1.0 vs. 0.0)” value (C1orf116 219476_at) was −1.222, the “Fold-Change (1.0 vs. 0.0)” value (CA5A 207421_at) was −1.243 and the “Fold-Change (1.0 vs. 0.0)” value (CALD1 201617_x_at) was −1.326. The “Fold-Change (1.0 vs. 0.0)” value (CALD1 212077_at) was −1.896, the “Fold-Change (1.0 vs. 0.0)” value (CAPRIN1 200722_s_at) was −1.157 and the “Fold-Change (1.0 vs. 0.0)” value (CCDC93 209689_at) was −1.133. The “Fold-Change (1.0 vs. 0.0)” value (CD84 211190_x_at) was −1.166, the “Fold-Change (1.0 vs. 0.0)” value (CDC14B 208022_s_at) was −1.4133 and the “Fold-Change (1.0 vs. 0.0)” value (CLDN5 204482_at) was −1.364. For the same compound, the “Fold-Change (1.0 vs. 0.0)” value (CTDSPL 201905_s_at) was −1.468, the “Fold-Change (1.0 vs. 0.0)” value (DLG4 210684_s_at) was −1.187 and the “Fold-Change (1.0 vs. 0.0)” value (DNM3 209839_at) was −1.8. The “Fold-Change (1.0 vs. 0.0)” value (FABP7 205030_at) was −1.176, the “Fold-Change (1.0 vs. 0.0)” value (FAM12B 220759_at) was −1.1468 and the “Fold-Change (1.0 vs. 0.0)” value (FBXO7 201178_at) was −1.135. The “Fold-Change (1.0 vs. 0.0)” value (FBXW7 218751_s_at) was −1.112, the “Fold-Change (1.0 vs. 0.0)” value (FSTL1 208782_at) was −1.694 and the “Fold-Change (1.0 vs. 0.0)” value (GNAS 200780_x_at) was −1.158. The “Fold-Change (1.0 vs. 0.0)” value (GNAS 200981_x_at) was −1.1585, the “Fold-Change (1.0 vs. 0.0)” value (GNAS 212273_x_at) was −1.156 and the “Fold-Change (1.0 vs. 0.0)” value (GNAS 214548_x_at) was −1.159. The “Fold-Change (1.0 vs. 0.0)” value (GNB5 207124_s_at) was −1.1663, the “Fold-Change (1.0 vs. 0.0)” value (GNB5 211871_x_at) was −1.159 and the “Fold-Change (1.0 vs. 0.0)” value (GP1BA 207389_at) was −1.548. For the same compound, the “Fold-Change (1.0 vs. 0.0)” value (GPRASP1 204793_at) was −1.16, the “Fold-Change (1.0 vs. 0.0)” value (GRAP2 208406_s_at) was −1.394 and the “Fold-Change (1.0 vs. 0.0)” value (GSPT1 217595_at) was −1.116. For the same compound, the “Fold-Change (1.0 vs. 0.0)” value (GUCY1B3 203817_at) was −1.73, the “Fold-Change (1.0 vs. 0.0)” value (H2BFS /// HIST1H2BK 208579_x_at) was −1.481 and the “Fold-Change (1.0 vs. 0.0)” value (HIST1H2AC 215071_s_at) was −1.628. For the same compound, the “Fold-Change (1.0 vs. 0.0)” value (HIST1H2AJ 208583_x_at) was −1.278, the “Fold-Change (1.0 vs. 0.0)” value (HIST1H2BK 209806_at) was −1.418 and the “Fold-Change (1.0 vs. 0.0)” value (HLA-E 217456_x_at) was −1.062. The “Fold-Change (1.0 vs. 0.0)” value (IGF2BP3 203819_s_at) was −1.72, the “Fold-Change (1.0 vs. 0.0)” value (ITGB1 211945_s_at) was −1.17 and the “Fold-Change (1.0 vs. 0.0)” value (ITGB3 204628_s_at) was −1.579. The “Fold-Change (1.0 vs. 0.0)” value (ITGB3 215240_at) was −1.589, the “Fold-Change (1.0 vs. 0.0)” value (ITGB5 201125_s_at) was −1.713 and the “Fold-Change (1.0 vs. 0.0)” value (LIMS1 207198_s_at) was −1.445. For the same compound, the “Fold-Change (1.0 vs. 0.0)” value (LIMS1 212687_at) was −1.3332, the “Fold-Change (1.0 vs. 0.0)” value (LOC150776 /// SMPD4 207856_s_at) was −1.0672 and the “Fold-Change (1.0 vs. 0.0)” value (LOC157627 214839_at) was 1.326. The “Fold-Change (1.0 vs. 0.0)” value (LUC7L2 220099_s_at) was −1.155.
